Experiments:
[1] = test system: penetrating ballistic brain injury rodent model; test: Penetrating ballistic brain injury rodent model of traumatic brain injury; type: in vivo; details: in 6% CAPTISOL; low (2.5 then 1.25 mg/kg/hr) and high (5.0 then 2.50 mg/kg/hr) dose groups, 5 day infusion
From the text: FIG. 5A depicts the latency to fall period (seconds) in a penetrating ballistic brain injury rodent model of traumatic brain injury in both the low and high dose groups progesterone in 6% CAPTISOL®. FIG. 5B depicts the mean motor score in a penetrating ballistic brain injury rodent model of traumatic brain injury in both the low and high dose groups progesterone in 6% CAPTISOL®.
Progesterone in 6% CAPTISOL® rescued motor impairment in a penetrating ballistic brain injury rodent model of traumatic brain injury in both the low and high dose groups (FIG. 5A and FIG. 5B). Progesterone was administered via a bolus loading dose followed by a 5 day continuous infusion where progesterone was tapered over the last 24 hours every 8 hrs by 25%. The low dose group received 2.5 mg/kg/hr for a 1 hr bolus infusion followed by a maintenance dose of 1.25 mg/kg/hr over 5 days with the last 24 hours being a taper. The high dose group received 5.0 mg/kg/hr for a 1 hr bolus infusion followed by a maintenance dose of 2.50 mg/kg/hr over 5 days with the last 24 hours being a taper.

[2] = test system: Fmr1 KO mice; test: Audiogenic seizure (AGS) status epilepticus rescue in Fmr1 knockout mice; type: in vivo; details: 3, 10, 30 mg/kg IP in 30% b-Cyclodextrin; relative to vehicle treated control
Procedure: FIG. 1A is a bar graph depicting the percent seizure in fmr1 KO mice intraperitoneally administered 3, 10, 30 mg/kg allopregnanolone in 30% β-Cyclodextrin. FIG. 1B is a bar graph depicting the percent survival in fmr1 KO mice intraperitoneally administered 3, 10, 30 mg/kg allopregnanolone in 30% β-Cyclodextrin.
(§1) Plasma levels of six animals in each Allopregnanolone treatment group were collected randomly at completion of study and analyzed by LC-MS/MS. Bioanalytical measures are indicated in ng/mL (FIG. 1A). Data are presented as mean+/−SEM. *P<0.05 indicate a statistically significant difference relative to vehicle control by Fisher's PLSD. MPEP 30 mg/kg was used as a positive control in the study.

[3] = Plasma and brain exposure by LC/MS-MS after single IM or IV dose; details: 30% CAPTISOL, SD rats
Procedure: FIG. 4A depicts the plasma exposure profiles of allopregnanolone measured by LC/MS-MS after single intramuscular (10 mg/kg) or intravenous (5 mg/kg) allopregnanolone dose in 30% CAPTISOL® in SD rats. FIG. 4B depicts the brain exposure profiles of allopregnanolone measured by LC/MS-MS after single intramuscular (10 mg/kg) or intravenous (5 mg/kg) allopregnanolone dose in 30% CAPTISOL® in SD rats.
The plasma and brain exposure profiles of Allopregnanolone were measured by LC/MS-MS after single intramuscular (IM) (10 mg/kg) or intravenous (IV) (5 mg/kg) dose in 30% CAPTISOL® in SD rats. […] N=2/time point. Error bars, SEM (FIGS. 4A and 4B).

[4] = test system: PTZ-treated C57BL6/J mice; test: PTZ (pentylenetetrazol) seizure model, prevention of status epilepticus; type: in vivo; details: 3, 10, 30 mg/kg IP in 15% β-Cyclodextrin; PTZ 85 mg/kg IP; relative to vehicle-treated control
Procedure: FIG. 2A is a graph depicting the seizure rank in PZT treated C57BL6/J mice intraperitoneally administered 3, 10, 30 mg/kg allopregnanolone in 15% β-Cyclodextrin. FIG. 2B is graph depicting the latency to death period in PZT treated C57BL65 mice intraperitoneally administered 3, 10, 30 mg/kg allopregnanolone in 15% β-Cyclodextrin.
as §1, with “three” for “six”, “2A).” for “1A).”, “Valproate 400” for “MPEP 30”

| Compound | motor impairment (latency to fall, mean motor score) [1] | Percent Seizure [2] | Percent Survival [2] | exposure in plasma, IM (10 mg/kg) relative to IV (5 mg/kg) dose ([3]; 0.5-2 hr) | exposure in brain, IM (10 mg/kg) relative to IV (5 mg/kg) dose ([3]; 1 hr) | Latency to Death [4] | Seizure rank [4] |
| --- | --- | --- | --- | --- | --- | --- | --- |
| CC(=O)[C@H]1CC[C@H]2[C@@H]3CCC4=CC(=O)CC[C@]4(C)[C@H]3CC[C@]12C [Progesterone, pregn-4-ene-3,20-dione] | rescued |  |  |  |  |  |  |
| CC(=O)[C@H]1CC[C@H]2[C@@H]3CC[C@H]4C[C@H](O)CC[C@]4(C)[C@H]3CC[C@]12C [Allopregnanolone, 3 alpha-hydroxy-5 alpha-pregnan-20-one] |  | significant decrease | increase | 671-916% | 506% | increase | significant decrease |
